{
  "source": "patent USRE35492E",
  "about": "“Wound treatment employing biologically active ion channel forming peptides and proteins” (Magainin Pharmaceuticals, Inc., priority 1994, dated 1997)",
  "key": {"[1]": {"tested_on": "wound healing in rats (sponge disc implants)", "assay": "Subcutaneous polyvinylchloride sponge disc implants in rats: collagen content and breaking strength", "type": "in vivo, rat", "description": "(§1) Twenty-two male rats weighing between 300 g and 325 g were anesthetized, after which their backs and abdomens were shaved and washed with 70% ethanol. Three modified polyvinylchloride sponge discs 2 mm thick and 15 mm in diameter were implanted in each rat abdominally in subcutaneous pockets made under the skin. Two of the implants were cut in half and rejoined before the implantation, and the remaining disc was sandwiched between two silicone discs which forced granulation tissue infiltration to occur from the periphery of the disc. A single 15 mm×15 mm square full excision wound was made on the back and the wound edges tattooed.\n(§2) The rats were then divided into four groups. A first, or control, group of four rats received sham injections daily. A second group of four rats received daily intramuscular injections of 10 mg of cortisone acetate. Cortisone is known to be an inhibitor of wound healing. A third group of seven rats received daily intramuscular injections of 0.3 mg of amide-terminated Magainin II. A fourth group of seven rats received daily intramuscular injections of 10 mg of cortisone acetate and 0.3 mg of Magainin II at separate sites. At seven days, rat weights were recorded, wound sizes measured, and the implants harvested. The staple which joined the two disc halves together was carefully removed and the breaking strength measured. Collagen content from the implant halves from each treatment group was measured by weighing the pepsin extracted native collagen. The sponge halves are homogenized in 0.5M ice-cold acetic acid containing 0.1 mg of pepsin per ml. The homogenate was stirred for 24 hours at 4° C., centrifuged, and supernatants saved. The native solubilized collagen was isolated by adding sodium chloride to 10% w/v. The salt precipitate was collected by centrifugation (10,000× g for 10 min.) and then taken up in 145 mM potassium phosphate buffer pH7.6, exhaustively dialyzed against 1 mM HCl, lyophilized and its dry weight recorded. Confirmation of collagen purity was made by SDS polyacrylamide gel electrophoresis. Pepsin digestion extracts only native collagen, needed for the formation of collagen fibers. The accumulations of collagen in the early stages of healing are responsible for gain in wound tensile strength. Collagen content from the implants taken from the group treated with cortisone acetate alone averaged 0.82 mg/sponge, as compared with 3.43 mg/sponge for the control group.\nThe group treated with Magainin II alone has a average wound breaking strength of 415 g."}, "[2]": {"tested_on": "full excision wound in rats", "assay": "15 mm×15 mm full excision wound on the back of rats: wound contraction", "type": "in vivo, rat", "settings": "for average wound contraction: seven days", "description": "as §1, §2"}, "wound healing": {"tested_on": "wound healing", "settings": "cited from earlier work; for restoring connective tissue deposition / restoring wound contraction: antagonism of cortisone inhibition of wound healing"}, "[3]": {"settings": "substance alone, daily intramuscular injections (Magainin II 0.3 mg; cortisone acetate 10 mg), implants harvested at seven days, control group 3.43"}},
  "note": "No end group written: not given here.",
  "data": [
    {"molecule": "CC(=O)OCC(=O)[C@@]1(O)CC[C@H]2[C@@H]3CCC4=CC(=O)CC[C@]4(C)[C@H]3C(=O)C[C@@]21C", "note": "[cortisone acetate, reference compound]", "values": [
      {"measurement": "average collagen content of implants", "setting": "[1]; [3]", "value": 0.82, "unit": "mg/sponge"}
    ]},
    {"molecule": "GIGKFLHSAKKFGKAFVGEIMNS-NH2 [Magainin II]", "values": [
      {"measurement": "average collagen content of implants", "setting": "[1]; 0.3 mg Magainin II plus 10 mg cortisone acetate daily intramuscular at separate sites, seven days, cortisone acetate alone 0.82", "value": 3.20, "unit": "mg/sponge"},
      {"measurement": "average wound breaking strength", "setting": "[1]; 0.3 mg Magainin II plus 10 mg cortisone acetate daily intramuscular at separate sites, seven days, cortisone acetate alone 195", "value": 320, "unit": "g"},
      {"measurement": "average collagen content of implants", "setting": "[1]; [3]", "value": 3.82, "unit": "mg/sponge"},
      {"measurement": "stimulating wound healing", "setting": "[2]; rats", "value": "effective"},
      {"measurement": "cortisone inhibition of wound healing (collagen deposition and wound contraction)", "setting": "[2]; rats treated with cortisone acetate and Magainin II", "value": "antagonistic"},
      {"measurement": "average wound contraction", "setting": "[2]; rats, 0.3 mg Magainin II plus 10 mg cortisone acetate daily intramuscular at separate sites, cortisone acetate alone 28", "value": 53, "unit": "%"},
      {"measurement": "average wound contraction", "setting": "[2]; rats, substance alone, daily intramuscular injections (Magainin II 0.3 mg; cortisone acetate 10 mg), control group 67", "value": 65, "unit": "%"}
    ]},
    {"molecule": "growth hormone: other antagonist of cortisone inhibition, effective in restoring connective tissue deposition", "values": [
      {"measurement": "restoring connective tissue deposition", "setting": "wound healing", "value": "effective"},
      {"measurement": "restoring wound contraction", "setting": "wound healing", "value": "ineffective"}
    ]},
    {"molecule": "Vitamin A", "values": [
      {"measurement": "restoring connective tissue deposition", "setting": "wound healing", "value": "effective"},
      {"measurement": "restoring wound contraction", "setting": "wound healing", "value": "ineffective"}
    ]},
    {"molecule": "C[C@]12CCC(=O)C=C1CC[C@@H]1[C@@H]2C(=O)C[C@@]2(C)[C@H]1CC[C@]2(O)C(=O)CO", "note": "[Cortisone]", "values": [
      {"measurement": "effect on wound healing", "setting": "wound healing; known", "value": "inhibitor"}
    ]}
  ]
}
